Columns and labels:
CDK4/D1 = CDK4/D1 (Homo sapiens, UniProt P11802); test: ADP Glo Kinase assay CDK4/D1; format: biochemical; settings: CDK4D1; for remaining activity at 10 µM: compound at 10 μM, read-out: residual activity (%) at 10 μM CDK4D1
In short: (§1)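 ADP Glo luminescence, in-house: CDK4/D1, CDK6/D3 on RB-CTF substrate (Tris pH 7.5, MgCl2, DTT, BSA); CDK9/T1 on RBER-IRStide. Reaction 40 min, 37° C after ATP addition. 10-point 1:3 series, 10 μM to 0.5 nM. IC50 by 4-parameter logistic; Ki derived using ATP Km.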

CDKs and other kinases [1] = target: T1, CDKs and other kinases (Homo sapiens, UniProt P24941); test: Radiometric kinase assay (Eurofins Pharma Discovery or Reaction Biology Corporation Kinase Profiler); format: biochemical; settings: CDK2A; for remaining activity at 10 µM: compound at 10 μM, read-out: residual activity (%) at 10 μM CDK2A; for Ki: read-out: CDK inhibition, Ki (μM) CDK2A
T1 construct: other: CDK2A; residual activity (%) at 10 μM CDK2A; compound at 10 μM
In short: (§2)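 Other CDKs and further kinases were profiled externally by radiometric assay. In-house ADP Glo assays covered CDK4/D1 and CDK6/D3 (RB-CTF substrate, pH 7.5 Tris buffer with MgCl2, DTT, BSA) and CDK9/T1 (RBER-IRStide substrate), 40 min at 37° C.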

CDKs and other kinases [2] = target: T2, CDKs and other kinases (Homo sapiens, UniProt P06493); test: as above; format: biochemical; settings: CDK1B; for remaining activity at 10 µM: compound at 10 μM, read-out: residual activity (%) at 10 μM CDK1B; for Ki: read-out: CDK inhibition, Ki (μM) CDK1B
T2 construct: other: CDK1B; residual activity (%) at 10 μM CDK1B; compound at 10 μM
T2 sequence (P06493 whole entry): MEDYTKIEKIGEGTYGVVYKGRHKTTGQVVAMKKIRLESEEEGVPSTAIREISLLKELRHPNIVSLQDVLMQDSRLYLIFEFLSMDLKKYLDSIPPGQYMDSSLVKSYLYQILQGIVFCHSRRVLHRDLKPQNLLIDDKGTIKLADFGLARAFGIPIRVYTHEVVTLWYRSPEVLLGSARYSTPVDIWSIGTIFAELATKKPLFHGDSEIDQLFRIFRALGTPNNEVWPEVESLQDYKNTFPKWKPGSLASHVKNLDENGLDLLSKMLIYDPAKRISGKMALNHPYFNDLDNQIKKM
In short: as §2

CDKs and other kinases [3] = target: T3, CDKs and other kinases (Homo sapiens, UniProt P50613); test: as above; format: biochemical; settings: CDK7H; for remaining activity at 10 µM: compound at 10 μM, read-out: residual activity (%) at 10 μM CDK7H; for Ki: read-out: CDK inhibition, Ki (μM) CDK7H
T3 construct: other: CDK7H; residual activity (%) at 10 μM CDK7H; compound at 10 μM
T3 sequence (P50613 whole entry): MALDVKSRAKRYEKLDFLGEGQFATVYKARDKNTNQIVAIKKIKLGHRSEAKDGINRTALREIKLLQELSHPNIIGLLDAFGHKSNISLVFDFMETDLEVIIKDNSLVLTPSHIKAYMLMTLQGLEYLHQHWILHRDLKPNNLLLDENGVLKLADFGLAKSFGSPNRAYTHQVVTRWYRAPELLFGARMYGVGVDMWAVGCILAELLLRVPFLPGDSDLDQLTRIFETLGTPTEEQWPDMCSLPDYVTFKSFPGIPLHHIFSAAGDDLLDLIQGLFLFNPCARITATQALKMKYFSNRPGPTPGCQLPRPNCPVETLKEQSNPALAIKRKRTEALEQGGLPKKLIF
In short: as §2

CDK6/D3 = CDK6/D3 (Homo sapiens, UniProt Q00534); test: ADP Glo Kinase assay CDK6/D3; format: biochemical; settings: CDK6D3; for remaining activity at 10 µM: compound at 10 μM, read-out: residual activity (%) at 10 μM CDK6D3
CDK6/D3, sequence (Q00534 whole entry): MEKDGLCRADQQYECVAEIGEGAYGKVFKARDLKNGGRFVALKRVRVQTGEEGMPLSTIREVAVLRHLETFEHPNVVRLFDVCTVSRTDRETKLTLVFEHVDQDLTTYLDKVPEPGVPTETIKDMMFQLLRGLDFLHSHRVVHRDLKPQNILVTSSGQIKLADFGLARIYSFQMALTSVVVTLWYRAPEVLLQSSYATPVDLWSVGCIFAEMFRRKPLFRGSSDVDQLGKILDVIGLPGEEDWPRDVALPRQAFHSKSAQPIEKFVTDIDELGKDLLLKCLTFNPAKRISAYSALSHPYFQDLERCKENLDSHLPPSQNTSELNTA
CDK6/D3, sequence (P30281 whole entry partner): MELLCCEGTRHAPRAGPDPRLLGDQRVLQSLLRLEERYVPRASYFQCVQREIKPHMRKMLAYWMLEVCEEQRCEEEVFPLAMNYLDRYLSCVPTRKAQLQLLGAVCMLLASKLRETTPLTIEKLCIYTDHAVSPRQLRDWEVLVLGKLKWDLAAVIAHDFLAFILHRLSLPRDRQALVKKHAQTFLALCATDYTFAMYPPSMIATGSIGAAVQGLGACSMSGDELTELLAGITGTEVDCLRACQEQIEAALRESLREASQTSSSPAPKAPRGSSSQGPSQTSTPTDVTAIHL
In short: as §1

CDK9/T1 = CDK9/T1 (Homo sapiens, UniProt P50750); test: ADP Glo Kinase assay CDK9/T1; format: biochemical; settings: CDK9T1; read-out: CDK inhibition, Ki (μM) CDK9T1
CDK9/T1, sequence (P50750 whole entry): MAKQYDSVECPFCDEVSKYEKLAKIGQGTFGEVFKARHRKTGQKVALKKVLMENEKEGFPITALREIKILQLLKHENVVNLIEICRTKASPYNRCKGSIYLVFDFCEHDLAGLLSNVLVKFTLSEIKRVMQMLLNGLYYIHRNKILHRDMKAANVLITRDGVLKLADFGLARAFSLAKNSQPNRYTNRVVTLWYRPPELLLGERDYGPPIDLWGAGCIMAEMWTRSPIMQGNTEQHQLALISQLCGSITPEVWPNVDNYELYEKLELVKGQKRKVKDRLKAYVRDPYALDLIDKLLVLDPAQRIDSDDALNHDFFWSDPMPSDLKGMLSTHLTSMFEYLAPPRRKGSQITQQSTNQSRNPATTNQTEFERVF
CDK9/T1, sequence (O60563 whole entry partner): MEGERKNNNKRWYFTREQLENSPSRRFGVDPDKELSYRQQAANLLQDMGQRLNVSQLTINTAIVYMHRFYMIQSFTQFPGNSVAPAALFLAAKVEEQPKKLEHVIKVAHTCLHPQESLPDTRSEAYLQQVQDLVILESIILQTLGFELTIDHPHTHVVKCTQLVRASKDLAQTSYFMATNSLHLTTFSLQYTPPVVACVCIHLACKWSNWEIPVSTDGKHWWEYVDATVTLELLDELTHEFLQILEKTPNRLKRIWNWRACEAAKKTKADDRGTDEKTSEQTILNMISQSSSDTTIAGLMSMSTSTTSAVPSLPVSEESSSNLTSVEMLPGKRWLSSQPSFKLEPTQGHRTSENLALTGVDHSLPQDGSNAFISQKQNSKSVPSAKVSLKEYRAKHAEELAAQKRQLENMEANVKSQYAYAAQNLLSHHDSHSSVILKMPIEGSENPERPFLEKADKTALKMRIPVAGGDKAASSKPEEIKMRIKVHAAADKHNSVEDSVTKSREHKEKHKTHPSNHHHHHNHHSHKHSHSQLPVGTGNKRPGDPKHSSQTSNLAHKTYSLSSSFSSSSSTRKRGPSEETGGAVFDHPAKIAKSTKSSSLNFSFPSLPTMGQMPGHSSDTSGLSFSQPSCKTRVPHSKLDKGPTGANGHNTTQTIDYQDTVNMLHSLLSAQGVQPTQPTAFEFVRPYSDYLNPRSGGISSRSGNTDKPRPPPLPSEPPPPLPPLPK
In short: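 Luminescent ADP detection measured activity after a 40 min, 37° C ATP-initiated reaction, using RB-CTF for CDK4/D1 and CDK6/D3 and RBER-IRStide for CDK9/T1. Controls lacked or contained kinase. Values: IC50 by four-parameter nonlinear regression, Ki from ATP Km.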

leukemia cell lines = test: Resazurin cell viability assay on leukemia cell lines (72 h growth inhibition, GI50); format: cell-based; settings: Homo sapiens, MV4-11 cells
In short: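 Cells were exposed to compound, then viability was read by MTT (solid tumour lines) or resazurin reduction (leukaemia lines). Non-linear regression gave the concentration inhibiting 50% of cell growth.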

CDK4/D1, sequence (P11802 whole entry): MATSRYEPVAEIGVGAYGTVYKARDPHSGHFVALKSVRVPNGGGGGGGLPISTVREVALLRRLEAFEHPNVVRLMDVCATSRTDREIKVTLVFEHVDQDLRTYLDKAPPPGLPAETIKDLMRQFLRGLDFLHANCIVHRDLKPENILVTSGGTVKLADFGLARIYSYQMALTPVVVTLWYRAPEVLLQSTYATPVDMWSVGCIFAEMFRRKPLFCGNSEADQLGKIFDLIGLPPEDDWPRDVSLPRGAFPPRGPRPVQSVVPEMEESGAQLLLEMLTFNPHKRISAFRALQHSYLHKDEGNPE
CDK4/D1, sequence (P24385 whole entry partner): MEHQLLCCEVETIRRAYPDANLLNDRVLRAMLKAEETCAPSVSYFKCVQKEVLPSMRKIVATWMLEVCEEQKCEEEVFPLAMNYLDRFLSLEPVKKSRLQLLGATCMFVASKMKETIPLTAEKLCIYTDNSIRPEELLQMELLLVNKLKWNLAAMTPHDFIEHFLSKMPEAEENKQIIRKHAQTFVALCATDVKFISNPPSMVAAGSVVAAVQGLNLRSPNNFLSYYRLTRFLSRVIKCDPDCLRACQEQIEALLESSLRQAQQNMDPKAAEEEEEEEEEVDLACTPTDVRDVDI

remaining activity at 10 µM (CDK4/D1) [%]	remaining activity at 10 µM (CDKs and other kinases [1]) [%]	remaining activity at 10 µM (CDKs and other kinases [2]) [%]	remaining activity at 10 µM (CDKs and other kinases [3]) [%]	remaining activity at 10 µM (CDK6/D3) [%]	Ki (CDK9/T1) [µM]	GI50 (leukemia cell lines) [µM]	Ki (CDKs and other kinases [1]) [µM]	Ki (CDKs and other kinases [2]) [µM]	Ki (CDKs and other kinases [3]) [µM]	Ki (CDK4/D1; read-out: CDK inhibition, Ki (μM) CDK4D1) [µM]	Ki (CDK6/D3; read-out: CDK inhibition, Ki (μM) CDK6D3) [µM]	Compound
4	4	-1	2	15	0.003	< 0.001						N[C@H]1CC[C@H](Nc2ncc(F)c(-c3cnc4ccc(-c5ncccc5F)cn34)n2)CC1 [Compound 27, (1r,4r)-N^1-(5-Fluoro-4-(6-(3-fluoropyridin-2-yl)imidazo [1,2-a]pyridin-3-yl)pyrimidin-2-yl)cyclohexane-1,4-diamine]
37				23	0.033	0.127 ± 0.002	0.35	2.18	0.71			Cc1cnc(N[C@H]2CC[C@H](N)CC2)nc1-c1cnc2ccc(Nc3ccc(OC(F)F)nc3)cn12 [Compound 68, (1r,4r)-N^1-(4-(6-((6-(Difluoromethoxy)pyridin-3-yl)amino)imidazo[1,2-a]pyridin-3-yl)-5-methylpyrimidin-2-yl) cyclohexane-1,4-diamine]
37	27	22	27	58	0.089	0.179 ± 0.061						Cc1cnc(N[C@H]2CC[C@@H](N)CC2)nc1-c1cnc2ccc(Nc3cccnc3)cn12 [Compound 92, (1s,4s)-N^1-(5-Methyl-4-(6-(pyridin-3-ylamino)imidazo [1,2-a]pyridin-3-yl)pyrimidin-2-yl)cyclohexane-1,4-diamine]
37	5	47	34	54	0.161	1.42 ± 0.652						Cc1cnc(N[C@H]2CC[C@H](O)CC2)nc1-c1cnc2ccccn12 [Compound 107, (1r,4r)-4-((4-(Imidazo[1,2-a]pyridin-3-yl)-5-methylpyrimidin-2-yl)amino)cyclohexan-1-ol]
					0.008	0.025 ± 0.011	0.51	2.01	0.21	1.58	1.01	COc1ccc(-c2ccc3ncc(-c4nc(N[C@H]5CC[C@H](N)CC5)ncc4Cl)n3c2)cn1 [Compound 81, (1r,4r)-N^1-(5-Chloro-4-(6-(6-methoxypyridin-3-yl)imidazo[1,2-a]pyridin-3-yl)pyrimidin-2-yl)cyclohexane-1,4-diamine]
70	2	4	57	73	0.155	4.76 ± 1.16						Cc1cnc(NC2CCOCC2)nc1-c1cnc2ccc(Nc3cncnc3)cn12 [Compound 104, 3-(5-Methyl-2-((tetrahydro-2H-pyran-4-yl)amino)pyrimidin-4-yl)-N-(pyrimidin-5-yl)imidazo[1,2-a]pyridin-6-amine]
13				80	0.004	0.008 ± 0.001	0.071	0.27	0.079			N[C@H]1CC[C@H](Nc2ncc(Cl)c(-c3cnc4ccc(-c5ccccc5)cn34)n2)CC1 [Compound 79, (1r,4r)-N^1-(5-Chloro-4-(6-phenylimidazo[1,2-a]pyridin-3-yl)pyrimidin-2-yl)cyclohexane-1,4-diamine]
0	4	10	5	12	0.004	0.045 ± 0.004						N[C@H]1CC[C@H](Nc2ncc(F)c(-c3cnc4ccc(-c5ccc(C(=O)N6CCNCC6)cc5)cn34)n2)CC1 [Compound 117, (4-(3-(2-(((1r,4r)-4-Aminocyclohexyl)amino)-5-fluoropyrimidin-4-yl)imidazo[1,2-a]pyridin-6-yl)phenyl) (piperazin-1-yl)methanone]
9	5	7	0	24	0.003	< 0.001						N[C@H]1CC[C@H](Nc2ncc(F)c(-c3cnc4ccc(-c5cccnc5)cn34)n2)CC1 [Compound 26, (1r,4r)-N^1-(5-Fluoro-4-(6-(pyridin-3-yl)imidazo[1,2-a]pyridin-3-yl)pyrimidin-2-yl)cyclohexane-1,4-diamine]
0				39	0.063	0.28 ± 0.049	0.155	0.258	0.885			COC(=O)CN1CCC(Nc2ncc(F)c(-c3cnc4ccccn34)n2)CC1 [Compound 23, Methyl 2-(4-((5-fluoro-4-(imidazo[1,2-a]pyridin-3-yl)pyrimidin-2-yl)amino)piperidin-1-yl)acetate]
73	19	31	14	39	0.073	0.135 ± 0.057						N[C@H]1CC[C@H](Nc2ncc(Cl)c(-c3cnc4ccc(NC(=O)c5ccccc5)cn34)n2)CC1 [Compound 87, N-(3-(2-(((1r,4r)-4-Aminocyclohexyl)amino)-5-chloropyrimidin-4-yl)imidazo[1,2-a]pyridin-6-yl) benzamide]
9				41	0.148	6.11 ± 1.14	0.007	0.028	0.001			CS(=O)(=O)N[C@H]1CC[C@H](Nc2ncc(Cl)c(-c3cnc4c(Br)cc(C(F)(F)F)cn34)n2)CC1 [Compound 18, N-((1r,4r)-4-((4-(8-Bromo-6-(trifluoromethyl)imidazo [1,2-a]pyridin-3-yl)-5-chloropyrimidin-2-yl)amino)cyclohexyl)methanesulfonamide]
24				25	0.023	0.199 ± 0.02	0.61	2.95	0.95			Cc1ccc(Nc2ccc3ncc(-c4nc(N[C@H]5CC[C@H](N)CC5)ncc4C)n3c2)cn1 [Compound 69, (1r,4r)-N^1-(5-Methyl-4-(6-((6-methylpyridin-3-yl)amino)imidazo[1,2-a]pyridin-3-yl)pyrimidin-2-yl)cyclohexane-1,4-diamine]
40				55	0.045	0.013 ± 0.002	0.059	2.66	0.958			N[C@H]1CC[C@H](Nc2ncc(Cl)c(-c3cnc4ccc(NCc5ccc(F)cc5)cn34)n2)CC1 [Compound 41, (1r,4r)-N^1-(5-Chloro-4-(6-((4-fluorobenzyl)amino)imidazo[1,2-a]pyridin-3-yl)pyrimidin-2-yl)cyclohexane-1,4-diamine]
30	1	4	40	45	0.203	> 10						Cc1cnc(NC2CCOCC2)nc1-c1cnc2ccc(Nc3cccnc3)cn12 [Compound 103, 3-(5-Methyl-2-((tetrahydro-2H-pyran-4-yl)amino)pyrimidin-4-yl)-N-(pyridin-3-yl)imidazo[1,2-a]pyridin-6-amine]
54	32	28	9	39	0.016	0.058 ± 0.002						Cc1cnc(NC2CCC(N(C)C)CC2)nc1-c1cnc2ccc(-c3ccccc3)cn12 (stereo not shown) [Compound 97, N^1,N^1-Dimethyl-N^4-(5-methyl-4-(6-phenylimidazo[1,2-^a]pyridin-3-yl)pyrimidin-2-yl)cyclohexane-1,4-diamine]

Reference: patent US11111245B2, “Derivatives of N-cycloalkyl/heterocycloalkyl-4-(imidazo[1,2-a]pyridine)pyrimidin-2-amine as therapeutic agents” (Aucentra Therapeutics Pty Ltd, priority 2017, dated 2021)
